Reference: patent publication US7414041B2 (Trustees Of Tufts College, priority 1991, dated 2008)
Like-named read-outs stand apart in the source and are kept apart here.

Key:
Assay type in all cases: cell-based
[1] = system: E. coli D1-299 (Tet A);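 also: E. coli at roughly 5×10^5 cells/ml in L broth, analog and doxycycline alone or mixed in two-fold dilutions from 50 to under 1 µg/ml, 18 h at 37 °C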
[2] = system: E. faecalis 158 (Tet L); assay: MIC/MLC chart, analog with and without doxycycline
[3] = system: E. faecalis 211 (Tet M); assay: MIC/MLC chart, analog with and without doxycycline;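 also: broth checkerboard of two-fold drug dilutions, alone and mixed with doxycycline, bacteria near 5×10^5 cells/ml, 18 h incubation at 37 °C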
[4] = system: S. aureus 4250 (Tet K); assay: MIC/MLC chart, analog with and without doxycycline
[5] = system: E. coli Class A Tc^r (DI-299)
[6] = system: E. faecalis Tc^r (M) (ATCC9790r/Tet M)
[7] = system: S. aureus Tc^s (RN450); assay: susceptibility testing MIC/MLC, drug alone; settings: for MLC: kills 99.9%
[8] = system: S. aureus Tc^r (RN4250); settings: Tc^r RN4250; for MLC: kills 99.9%
[9] = system: E. coli Class β Tc^r (DI-209)
[10] = system: E. faecalis Tc^r (L) (ATCC9790r/Tet L); settings: Tc^r (L)
[11] = system: E. coli Tc^s (MI 300-225); assay: susceptibility testing MIC/MLC, drug alone; settings: Tc^s
[12] = system: E. faecalis Tc^s (ATCC9790r); assay: susceptibility testing MIC/MLC, drug alone
[13] = doxycycline alone 1.56 μg/ml (Doxy Control)
[14] = doxycycline alone 3.12 μg/ml (Doxy Control)
[15] = doxycycline alone 6.25 μg/ml (Doxy Control)
[16] = doxycycline alone 12.5 μg/ml (Doxy Control)

C[C@H]1c2cccc(O)c2C(O)=C2C(=O)[C@]3(O)C(O)=C(C(N)=O)C(=O)[C@@H](N(C)C)[C@@H]3[C@@H](O)[C@@H]21 [Doxy, Doxycycline, reference compound]
MIC/MLC chart symbol ([1]; Chart 6A, Doxy Control (doxycycline alone), μg/ml = number in line above): ◯ and +
growth / no growth (MIC) / killing (MLC) symbol ([1]; doxy alone 1.56 μg/ml): +
growth / no growth (MIC) / killing (MLC) symbol ([1]; doxy alone 3.12 μg/ml): +
growth / no growth (MIC) / killing (MLC) symbol ([1]; doxy alone 6.25 μg/ml): +
growth / no growth (MIC) / killing (MLC) symbol ([1]; doxy alone 12.5 μg/ml): +
growth / no growth (MIC) / killing (MLC) symbol ([1]; doxy alone 25 μg/ml): ◯
MIC/MLC chart: growth or killing [1, 13]: +
MIC/MLC chart: growth or killing [1, 14]: +
MIC/MLC chart: growth or killing [1, 15]: +
MIC/MLC chart: growth or killing [1, 16]: +
MIC/MLC chart: growth or killing ([1]; doxycycline alone 25.0 μg/ml (Doxy Control)): +
MIC/MLC chart symbol ([2]; Chart 6C, Doxy Control (doxycycline alone), μg/ml = number in line above): +
growth / no growth (MIC) / killing (MLC) symbol ([2]; doxy alone 1.56 μg/ml): +
growth / no growth (MIC) / killing (MLC) symbol ([2]; doxy alone 3.12 μg/ml): +
growth / no growth (MIC) / killing (MLC) symbol ([2]; doxy alone 6.25 μg/ml): +
growth / no growth (MIC) / killing (MLC) symbol ([2]; doxy alone 12.5 μg/ml): ↓
MIC/MLC chart: growth or killing [2, 13]: +
MIC/MLC chart: growth or killing [2, 14]: +
MIC/MLC chart: growth or killing [2, 15]: +
MIC/MLC chart symbol ([3]; Chart 6D, Doxy Control (doxycycline alone), μg/ml = number in line above): ↓ and +
growth / no growth (MIC) / killing (MLC) symbol ([3]; doxy alone 1.56 μg/ml): +
growth / no growth (MIC) / killing (MLC) symbol ([3]; doxy alone 3.12 μg/ml): +
growth / no growth (MIC) / killing (MLC) symbol ([3]; doxy alone 6.25 μg/ml): +
growth / no growth (MIC) / killing (MLC) symbol ([3]; doxy alone 12.5 μg/ml): +
growth / no growth (MIC) / killing (MLC) symbol ([3]; doxy alone 25 μg/ml): ↓
MIC/MLC chart: growth or killing [3, 13]: +
MIC/MLC chart: growth or killing [3, 14]: +
MIC/MLC chart: growth or killing [3, 15]: +
MIC/MLC chart: growth or killing [3, 16]: +
MIC/MLC chart symbol ([4]; Chart 6B, Doxy Control (doxycycline alone), μg/ml = number in line above): +
growth / no growth (MIC) / killing (MLC) symbol ([4]; doxy alone 1.56 μg/ml): +
growth / no growth (MIC) / killing (MLC) symbol ([4]; doxy alone 3.12 μg/ml): +
growth / no growth (MIC) / killing (MLC) symbol ([4]; doxy alone 6.25 μg/ml): +
growth / no growth (MIC) / killing (MLC) symbol ([4]; doxy alone 12.5 μg/ml): +
MIC/MLC chart: growth or killing [4, 13]: +
MIC/MLC chart: growth or killing [4, 14]: +
MIC/MLC chart: growth or killing [4, 15]: +
MIC/MLC chart: growth or killing [4, 16]: ◯

CC(C)SCC1c2cccc(O)c2C(=O)C2=C(O)C3(O)C(=O)C(C(N)=O)=C(O)C(N(C)C)C3C(O)C21 (stereo not shown) [Isopropyl]
MIC ([5]; 1st column): 46 ± 6 µg
MIC ([5]; 2nd column): 60 µg
MIC ([6]; 2nd column): >200 µg
MIC [7]: 0.5 ± 0.25 µg
MLC [7]: 6 ± 2 µg
MIC [8]: 4.5 ± 0.5 µg
MLC [8]: 8 µg
MIC ([9]; 1st column): 35 ± 6 µg
MIC ([9]; 2nd column): 46 ± 16 µg
MIC ([10]; 1st column): 3 ± 1 µg
MIC ([10]; 2nd column): 100 ± 0.25 µg
MIC ([11]; 1st column): 22 ± 2 µg
MIC ([11]; 2nd column): 60 µg
MIC ([12]; 1st column): 3 ± 1 µg
MIC ([12]; 2nd column): 20 ± 0.26 µg

CN(C)c1ccc(O)c2c1C[C@H]1C[C@H]3[C@H](N(C)C)C(=O)C(C(N)=O)=C(O)[C@@]3(O)C(=O)C1=C2O [Minocycline, reference compound]
MIC ([5]; 1st column): <4 µg
MIC ([5]; 2nd column): 20 µg
MIC ([6]; 1st column): 10 µg
MIC ([6]; 2nd column): >80 µg
MIC [7]: <0.25 µg
MLC [7]: 8 µg
MIC [8]: <0.25 µg
MLC [8]: >80 µg
MIC ([9]; 1st column): 6 ± 2 µg
MIC ([9]; 2nd column): 30 ± 10 µg
MIC ([10]; 1st column): <0.26 µg
MIC ([10]; 2nd column): >80 µg
MIC ([11]; 1st column): <4 µg
MIC ([11]; 2nd column): <4 µg
MIC ([12]; 1st column): <0.26 µg
MIC ([12]; 2nd column): >40 µg

CN(C)C1C(O)=C(C(N)=O)C(=O)C2(O)C(O)=C3C(=O)c4c(O)cccc4C(C)(O)C3CC12 (stereo not shown) [Tetracycline, 4-(Dimethylamino)-1,4,4a,5,5a,6-11,12a-octahydro-3,6,10,12,12a-pentahydroxy-6-methyl-1-11-dioxo-2-naphth acenecarboxamide, reference compound]
MIC ([5]; 1st column): 160 ± 0.26 µg
MIC ([5]; 2nd column): 200 µg
MIC ([6]; 1st column): 100 µg
MIC ([6]; 2nd column): 300 µg
MIC [7]: 0.75 ± 0.25 µg
MLC [7]: >6 µg
MIC [8]: 90 ± 10 µg
MLC [8]: 100 µg
MIC ([9]; 1st column): >200 µg
MIC ([9]; 2nd column): >200 µg
MIC ([10]; 1st column): 90 ± 10 µg
MIC ([10]; 2nd column): >300 µg
MIC ([11]; 1st column): 0.6 ± 0.26 µg
MIC ([11]; 2nd column): 40 ± 0.26 µg
MIC ([12]; 1st column): 0.26 µg
MIC ([12]; 2nd column): >200 µg
